One series relates to TSH1. The series can be described thus: MTT cytotoxicity assay, TSH1. The format is cell-based. As to conditions: TSH1, 72 h. The protocol:
(§1) All cell lines were obtained from the American Type Culture Collection (ATCC) and cultured in the specified medium supplemented with 10% fetal bovine serum, 100 IU/mL penicillin, and 100 μg/mL streptomycin at 37°C in a humidified 5% CO2/95% air incubator. Synthesis of new compounds is described in S1 File, and >95% purity of RA475, Up284 and its analogs were confirmed by NMR and MS. To assess drug cytotoxicity, cells were seeded at 2,500 cells/well (10,000 cells/well for MM lines) in 100 μL medium in 96-well plate as triplicates and after 24 h treated with compounds for a further 72 h. To assess cytotoxicity, the cells were incubated for 2 h at 37°C according to the manufacturer’s protocol with the Thiazolyl Blue Tetrazolium Bromide (20 μL/well of 5 mg/mL stock solution in water) (Sigma, M5655) and A570 measured using a Benchmark Plus microplate spectrophotometer (BIO-RAD). IC50 was estimated using Graphpad Prism 7 software.

A short description of series [1]: Tissue distribution in CD1 mice. The format is in vivo, mouse. As to conditions: 24 h; for Concentration in brain: one IV dose 40 mg/kg. The protocol: For the stability studies and biodistribution studies, plasma or tissue homogenate (20 μL) was extracted with 100 μL of acetonitrile containing the internal standard RA413S (a structural analogue) at 10 ng/mL. Tissue homogenates were prepared at a concentration of 200 mg/mL in PBS. After vortex-mixing and centrifuging for 5 min at 2500 xg, 10 μL of the supernatant was injected into LC-MS/MS system. […] Mobile phase A was water containing 0.1% formic acid, and mobile phase B was acetonitrile containing 0.1% formic acid. The gradient started with mobile phase B at 20% and was held at 20% for 0.5 minutes with a flow rate of 0.3 mL/min, then increased to 100% over 0.5 minutes and held for 2.0 minutes, and finally returned back to 20% mobile phase B and allowed to equilibrate until 4.1minutes. An AB Sciex 5500 triple quadrupole mass spectrometer operated in positive electrospray ionization mode was used for the detection of RA475. The lower limit of quantitation (LLOQ) in plasma was 10 ng/mL.
In a separate experiment to assess drug distribution, CD1 mice were injected with one dose of RA475 (40 mg/kg, IV) and tissues collected after 4 h and 24 h. RA475 levels were analyzed in all major tissues (brain, colon, heart, kidney, liver, lung and spleen) by LC-MS/MS.
Fig 5 Tissue distribution of RA475 and Up284 in mice. Female CD1 mice (n = 3/drug) were treated with one IV dose of A) RA475 (40mg/kg) or B) Up284 (40mg/Kg) and euthanized after 24 h with collection of plasma and tissues including brain, colon, heart, kidney, liver, lung and spleen. RA475 and Up284 concentrations in tissue samples were analyzed by LC-MS/MS. TEXT PRINTED IN THE PICTURE: (A) RA475: RA475 Concentration (ng/mL or ng/g): 161 (Brain) | (B) Up284: Up284 Concentration (ng/mL or ng/g): 9214 (Brain)

The test system of series [2] is 4UbFL expressed in leg muscle. As to the kind of experiment: 4UbFL reporter in leg muscle of CD-1 mice. The following applies: for 4UbFL bioluminescence from leg muscle vs vehicle: single IP dose 40 mg/Kg, 4-96 h. The format is in vivo, mouse. As to the method: A patch of CD1 mouse leg was shaved of hair and 10 μg 4Ub-FL plasmid in 20 μL of PBS was injected into the quadriceps femoralis muscle followed immediately by injection of the 2 Needle Array to 5 mm depth encompassing the injection site and square wave EP (ElectroSquarePorator 833, BTX-2 Needle array 5mm gap, Harvard apparatus) delivered as eight pulses at 106 V for 20 ms with 200 ms intervals. One day post-EP, mice were anesthetized with isoflurane, injected IP with luciferin (0.3 mg in 100 μL water) and optical imaging was performed to determine basal level luciferase expression. Images were acquired for 10 min with a Xenogen IVIS 200 (Caliper, Hopkinton, MA). Equally sized areas were analyzed using Living Image 2.20 software.
Fig 3 Impact of RA475 on proteasome function. […] Actin was used as loading control. […] C) 4T1 and HCC1806 cells stably expressing 4UbFL were treated with compounds at indicated doses for 4 h and imaged by IVIS200 after the addition of luciferin substrate (50 μL, 7mg/mL in PBS). D) Sub-confluent cultures of ES2 cells stably expressing 4UbFL were seeded at 10,000 cells/well in 96-well microtiter plates. At 18 h post transfection, cells were treated with compounds or vehicle (DMSO) at the doses indicated. After a 4 h incubation, the cells were lysed and the luciferase activity in each cell lysate was determined with a luciferase assay kit (Promega) according to the manufacturer’s instructions. Bioluminescence was measured by using a luminometer (Glomax Multidetection system, Promega) E) A patch was shaved of hair on one leg of CD-1 mice, and 10 μg 4UbFL plasmid in 20 μL of PBS was injected into the quadriceps femoralis muscle followed immediately by injection of the 2 Needle Array to 5 mm depth encompassing the injection site and square wave electroporation (ElectroSquarePorator 833, BTX-2 Needle array 5mm gap, Harvard apparatus) delivered as eight pulses at 106V for 20 ms with 200 ms intervals. One day post electroporation, mice were anesthetized with isoflurane, injected IP with luciferin (0.3 mg in 100 μL water) and optical imaging was performed to determine basal level luciferase expression. Images were acquired for 10 min with a Xenogen IVIS 200 (Caliper, Hopkinton, MA). Equally sized areas were analyzed using Living Image 2.20 software. Mice were imaged weekly during treatment. Mice were randomized into three groups (n = 5) and treated IP once with Vehicle (25% (w/v) β-Hydroxypropylcyclodextrin in water, Sigma Aldrich) alone, RA475 (40 mg/Kg) or Up284 (40 mg/Kg) and mice were imaged again at 4 h, 24 h, 48 h, 72 h and 96 h later. F) Same as in E but RA475 (40mg/Kg) and ixazomib (10mg/Kg, recommended dose) were delivered orally. Thick line indicates median measurements. […]

In a further series the test system is ES2. As to the kind of experiment: MTT cytotoxicity assay, ES2. The format is cell-based. The following applies: Homo sapiens, ES-2, ES2, 72 h. The protocol:
as §1
Background: Tetrazolium dyes change colour on reduction, which living cells bring about.

Entries after “also recorded” stand apart in the source; their conditions may differ.

Broadly, the IC50 is the concentration that inhibits the measured activity by half. Higher therefore signals lower potency.

`Cl.Cl.N#Cc1ccc(/C=C2/C(=O)/C(=C/c3ccc(C#N)cc3)C23CCN(C(=N)N)CC3)cc1` [RA475, 1,3-bis((E)-4-cyanobenzylidene)-2-oxo-7-azaspiro[3.5]nonane-7-carboximidamide dihydrochloride]: the values for the IC50 in the series on TSH1 and in the series on ES2 were 114 nM and 160 nM, respectively. Besides, in series [1] (40 mg/kg IV), the tissue accumulation result was “accumulated primarily in kidneys and liver”. For the same molecule, the Concentration in brain in series [1] was 161 ng/mL or ng/g. The “4UbFL stabilization, fold over baseline” value in series [2] (40 mg/Kg IP) is listed as over 20 fold. Further, in series [2], the “4UbFL bioluminescence from leg muscle vs vehicle” value is recorded as “rapidly increased the bioluminescence”. Moreover, the “stabilization of 4UbFL in muscle” value in series [2] (single oral (PO) 40 mg/Kg dose, 40 mg/kg) was “much lower than seen for the single IV dose; also recorded: minimal stabilization”.

As to `N#Cc1ccc(/C=C2/C(=O)/C(=C/c3ccc(C#N)cc3)C23CCNCC3)cc1` [Up284, reference compound], the IC50 with TSH1 came to 70 nM; in the series with ES2 it was 125 nM. In addition, in series [1], the Concentration in brain was 9214 ng/mL or ng/g. Further, the “4UbFL bioluminescence from leg muscle vs vehicle” value in series [2] is “much weaker effect”.
